{"source": "patent US20040127403A1", "about": "“Methods for treating and preventing Gram-positive bacteremias” (priority 2002, published 2004)", "key": {"S. epidermidis ATCC35984": {"tested_on": "S. epidermidis ATCC35984", "assay": "MIC, NCCLS broth microdilution", "format": "cell-based", "conditions": "Staphylococcus epidermidis, ATCC35984, S. epidermidis ATCC35984"}, "S. aureus ATCC27659 MSSA": {"tested_on": "S. aureus ATCC27659 MSSA", "assay": "MIC, NCCLS broth microdilution", "format": "cell-based", "conditions": "Staphylococcus aureus", "outline": "(§1)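 Ramoplanin-containing broths (cation-adjusted Mueller-Hinton or trypticase soy) received 0.02% BSA so the drug would not stick to plastic. Minimum inhibitory concentrations were read per the NCCLS broth microdilution standard.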"}, "S. aureus ATCC27660 MSSA": {"tested_on": "S. aureus ATCC27660 MSSA", "assay": "MIC, NCCLS broth microdilution", "format": "cell-based", "conditions": "Staphylococcus aureus", "outline": "as §1"}, "E. faecium UA210": {"tested_on": "E. faecium UA210", "assay": "MIC, NCCLS broth microdilution", "format": "cell-based", "conditions": "Enterococcus faecium, UA210, E. faecium UA210", "outline": "as §1"}, "S. epidermidis ATCC18972": {"tested_on": "S. epidermidis ATCC18972", "assay": "MIC, NCCLS broth microdilution", "format": "cell-based", "conditions": "Staphylococcus epidermidis, ATCC18972, S. epidermidis ATCC18972"}, "[1]": {"tested_on": "VanA strain of E. faecium (VRE)", "assay": "Suppression of VRE in a mouse colonization model", "format": "in vivo, Mice", "description": "Mice were colonized with a clinical isolate VanA strain of E. faecium (VRE) isolated from a septicemic patient. A single inoculation of 5×10^8 cfu VRE by oral gavage (Day 0) was followed by treatment with vancomycin in the drinking water to maintain colonization. On day 22, each group received the same vancomycin-containing drinking water. One group also received ramoplanin (100 μg/mL) in its drinking water. The dose of ramoplanin per day was estimated to be 15 mg/kg, based on a standard water consumption of 150 mL/kg/day. Treatment with ramoplanin was discontinued on Day 29, and vancomycin treatment was discontinued on Day 36. The control group consisted of five mice, while the ramoplanin group consisted of four mice."}, "E. faecium A 6350 Line-R": {"tested_on": "E. faecium A 6350 Line-R", "assay": "MIC, NCCLS broth microdilution", "format": "cell-based", "outline": "as §1"}, "[2]": {"conditions": "Day 22, prior to ramoplanin therapy, control group, 25 mg/kg/day vancomycin"}, "[3]": {"conditions": "Day 22, prior to ramoplanin therapy, ramoplanin group, on 25 mg/kg/day vancomycin"}, "[4]": {"conditions": "Day 29, control group, 25 mg/kg/day vancomycin"}, "[5]": {"conditions": "Day 36, 7 days after completion of ramoplanin therapy, former ramoplanin group, on 25 mg/kg/day vancomycin"}, "[6]": {"conditions": "Day 36, control group, 25 mg/kg/day vancomycin"}}, "note": "Where two headings read alike, the source gives them in different places."}
{"compound": "CC(=O)NC[C@H]1CN(c2ccc(N3CCOCC3)c(F)c2)C(=O)O1", "note": "[Linezolid]", "values": [{"measurement": "MIC", "setting": "S. epidermidis ATCC35984; Table 6, 1st, read-out: MIC", "result": 4, "unit": "µg/mL"}, {"measurement": "MIC", "setting": "S. epidermidis ATCC35984; Table 6, 2nd, read-out: MIC", "result": 2, "unit": "µg/mL"}, {"measurement": "MIC", "setting": "S. aureus ATCC27659 MSSA; Table 6, 1st, read-out: MIC", "result": 4, "unit": "µg/mL"}, {"measurement": "MIC", "setting": "S. aureus ATCC27659 MSSA; Table 6, 2nd, read-out: MIC", "result": 2, "unit": "µg/mL"}, {"measurement": "MIC", "setting": "S. aureus ATCC27660 MSSA; Table 6, 1st, read-out: MIC", "result": 4, "unit": "µg/mL"}, {"measurement": "MIC", "setting": "S. aureus ATCC27660 MSSA; Table 6, 2nd, read-out: MIC", "result": 2, "unit": "µg/mL"}, {"measurement": "MIC", "setting": "E. faecium UA210; Table 6, 1st, read-out: MIC", "result": 4, "unit": "µg/mL"}, {"measurement": "MIC", "setting": "E. faecium UA210; Table 6, 2nd, read-out: MIC", "result": 2, "unit": "µg/mL"}, {"measurement": "MIC", "setting": "S. epidermidis ATCC18972; Table 6, 1st, read-out: MIC", "result": 2, "unit": "µg/mL"}, {"measurement": "MIC", "setting": "S. epidermidis ATCC18972; Table 6, 2nd, read-out: MIC", "result": 1, "unit": "µg/mL"}]}
{"compound": "COc1cccc(OC)c1C(=O)N[C@@H]1C(=O)N2[C@@H]1SC(C)(C)[C@@H]2C(=O)O", "note": "[Meth., methicillin]", "values": [{"measurement": "MIC", "setting": "S. epidermidis ATCC35984; Table 6, 1st, read-out: MIC", "result": "> 16", "unit": "µg/mL"}, {"measurement": "MIC", "setting": "S. epidermidis ATCC35984; Table 6, 2nd, read-out: MIC", "result": "> 64", "unit": "µg/mL"}, {"measurement": "MIC", "setting": "S. aureus ATCC27659 MSSA; Table 6, 1st, read-out: MIC", "result": 2, "unit": "µg/mL"}, {"measurement": "MIC", "setting": "S. aureus ATCC27659 MSSA; Table 6, 2nd, read-out: MIC", "result": 2, "unit": "µg/mL"}, {"measurement": "MIC", "setting": "S. aureus ATCC27660 MSSA; Table 6, 1st, read-out: MIC", "result": 2, "unit": "µg/mL"}, {"measurement": "MIC", "setting": "S. aureus ATCC27660 MSSA; Table 6, 2nd, read-out: MIC", "result": 4, "unit": "µg/mL"}, {"measurement": "MIC", "setting": "E. faecium UA210; Table 6, 1st, read-out: MIC", "result": "> 16", "unit": "µg/mL"}, {"measurement": "MIC", "setting": "E. faecium UA210; Table 6, 2nd, read-out: MIC", "result": "> 64", "unit": "µg/mL"}, {"measurement": "MIC", "setting": "S. epidermidis ATCC18972; Table 6, 1st, read-out: MIC", "result": "> 16", "unit": "µg/mL"}, {"measurement": "MIC", "setting": "S. epidermidis ATCC18972; Table 6, 2nd, read-out: MIC", "result": 64, "unit": "µg/mL"}]}
{"compound": "CN[C@H](CC(C)C)C(=O)N[C@H]1C(=O)N[C@@H](CC(N)=O)C(=O)N[C@H]2C(=O)N[C@H]3C(=O)N[C@H](C(=O)N[C@H](C(=O)O)c4cc(O)cc(O)c4-c4cc3ccc4O)[C@H](O)c3ccc(c(Cl)c3)Oc3cc2cc(c3O[C@@H]2O[C@H](CO)[C@@H](O)[C@H](O)[C@H]2O[C@H]2C[C@](C)(N)[C@H](O)[C@H](C)O2)Oc2ccc(cc2Cl)[C@H]1O", "note": "[Vancomycin]", "values": [{"measurement": "MIC", "setting": "S. epidermidis ATCC35984; CAMHB", "result": 4, "unit": "µg/mL"}, {"measurement": "MIC", "setting": "S. epidermidis ATCC35984; TSB", "result": 4, "unit": "µg/mL"}, {"measurement": "MIC", "setting": "S. epidermidis ATCC35984; Table 6, 1st", "result": 2, "unit": "µg/mL"}, {"measurement": "MIC", "setting": "S. epidermidis ATCC35984; Table 6, 2nd", "result": 2, "unit": "µg/mL"}, {"measurement": "% Mice with VRE", "setting": "[1]; [2]", "result": 100, "unit": "%"}, {"measurement": "Enterococci in faeces: Total Enterococci", "setting": "[1]; [2]", "result": 9.6, "unit": "log 10 cfu/g faeces"}, {"measurement": "Enterococci in faeces: VRE", "setting": "[1]; [2]", "result": 9.7, "unit": "log 10 cfu/g faeces"}, {"measurement": "% Mice with VRE", "setting": "[1]; [3]", "result": 100, "unit": "%"}, {"measurement": "Enterococci in faeces: Total Enterococci", "setting": "[1]; [3]", "result": 9.8, "unit": "log 10 cfu/g faeces"}, {"measurement": "Enterococci in faeces: VRE", "setting": "[1]; [3]", "result": 9.7, "unit": "log 10 cfu/g faeces"}, {"measurement": "% Mice with VRE", "setting": "[1]; [4]", "result": 100, "unit": "%"}, {"measurement": "Enterococci in faeces: Total Enterococci", "setting": "[1]; [4]", "result": 9.3, "unit": "log 10 cfu/g faeces"}, {"measurement": "Enterococci in faeces: VRE", "setting": "[1]; [4]", "result": 9.4, "unit": "log 10 cfu/g faeces"}, {"measurement": "% Mice with VRE", "setting": "[1]; [5]", "result": 100, "unit": "%"}, {"measurement": "Enterococci in faeces: Total Enterococci", "setting": "[1]; [5]", "result": 8.6, "unit": "log 10 cfu/g faeces"}, {"measurement": "Enterococci in faeces: VRE", "setting": "[1]; [5]", "result": 8.7, "unit": "log 10 cfu/g faeces"}, {"measurement": "% Mice with VRE", "setting": "[1]; [6]", "result": 100, "unit": "%"}, {"measurement": "Enterococci in faeces: Total Enterococci", "setting": "[1]; [6]", "result": 9.6, "unit": "log 10 cfu/g faeces"}, {"measurement": "Enterococci in faeces: VRE", "setting": "[1]; [6]", "result": 9.3, "unit": "log 10 cfu/g faeces"}, {"measurement": "MIC", "setting": "S. aureus ATCC27659 MSSA; CAMHB", "result": 1, "unit": "µg/mL"}, {"measurement": "MIC", "setting": "S. aureus ATCC27659 MSSA; TSB", "result": "> 16", "unit": "µg/mL"}, {"measurement": "MIC", "setting": "S. aureus ATCC27659 MSSA; Table 6, 1st", "result": 1, "unit": "µg/mL"}, {"measurement": "MIC", "setting": "S. aureus ATCC27659 MSSA; Table 6, 2nd", "result": 1, "unit": "µg/mL"}, {"measurement": "MIC", "setting": "S. aureus ATCC27660 MSSA; CAMHB", "result": 2, "unit": "µg/mL"}, {"measurement": "MIC", "setting": "S. aureus ATCC27660 MSSA; TSB", "result": 2, "unit": "µg/mL"}, {"measurement": "MIC", "setting": "S. aureus ATCC27660 MSSA; Table 6, 1st", "result": 1, "unit": "µg/mL"}, {"measurement": "MIC", "setting": "S. aureus ATCC27660 MSSA; Table 6, 2nd", "result": 1, "unit": "µg/mL"}, {"measurement": "MIC", "setting": "E. faecium A 6350 Line-R; E. faecium A 6350 Line-R (Table 2), TSB", "result": ">16, >16 μg/ml"}, {"measurement": "MIC", "setting": "E. faecium A 6350 Line-R; Enterococcus faecium, A6350LINER", "result": "> 16", "unit": "µg/mL"}, {"measurement": "MIC", "setting": "E. faecium UA210; CAMHB", "result": "> 16", "unit": "µg/mL"}, {"measurement": "MIC", "setting": "E. faecium UA210; TSB", "result": "> 16", "unit": "µg/mL"}, {"measurement": "MIC", "setting": "E. faecium UA210; Table 6, 1st", "result": "> 16", "unit": "µg/mL"}, {"measurement": "MIC", "setting": "E. faecium UA210; Table 6, 2nd", "result": "> 64", "unit": "µg/mL"}, {"measurement": "MIC", "setting": "S. epidermidis ATCC18972; CAMHB", "result": 4, "unit": "µg/mL"}, {"measurement": "MIC", "setting": "S. epidermidis ATCC18972; TSB", "result": 4, "unit": "µg/mL"}, {"measurement": "MIC", "setting": "S. epidermidis ATCC18972; Table 6, 1st", "result": 2, "unit": "µg/mL"}, {"measurement": "MIC", "setting": "S. epidermidis ATCC18972; Table 6, 2nd", "result": 2, "unit": "µg/mL"}]}
